Data: ChEMBL document CHEMBL2095176, “GSK Tuberculosis Screening Data”
≈ marks a conversion by molar mass, not a printed value.

Experiments:
[1] = buffer, pH 7.4
Description: (§1) GSK_TB: GSK in-house hydrophobicity assay at pH7.4 (logD)

physchem [2] = conditions: octanol/water
Description: (§2) GSK_TB: GSK in-house hydrophobicity assay (logP)

physchem [3] = conditions: phosphate buffered saline, pH 7.4
[4] = tested on: Mycobacterium tuberculosis H37Rv; assay: microbe, parasite or virus in culture
Description: GSK_TB: Intracellular minimum inhibitory concentration (MIC) H37Rv assay

physchem [5] = conditions: buffer, pH 7.4
Description: as §1

[6] = octanol/water
Description: as §2

SMILES	logD7.4 [1]	logP (physchem [2])	solubility kinetic (physchem [3]) [µM]	MIC90 [4] [µM]	logD (physchem [5])	logP [6]
CCN(CC)c1ccc(-c2nn3c(-c4n[nH]c5c4CCC5)nnc3s2)cc1	5.44	5.78	1 (≈ 0.379 µg/mL)	1.5 (≈ 0.569 µg/mL)	–	–
COc1ccc(CCNC(=O)c2c(C)nc3ccccn23)cc1	–	3.41	348 (≈ 108 µg/mL)	3.1 (≈ 0.959 µg/mL)	3.39	–
Cc1cccc(Cn2ccc(NC(=O)c3ccc4c(c3)OCO4)n2)c1	–	5.27	80 (≈ 26.8 µg/mL)	3.7 (≈ 1.24 µg/mL)	5.07	–
c1csc(Cc2nn3c(-c4n[nH]c5c4CCC5)nnc3s2)c1	–	3.48	196 (≈ 64.4 µg/mL)	2.4 (≈ 0.788 µg/mL)	3.3	–
Brc1c(-c2ccc3c(c2)OCO3)nc2ncccn12	–	3.48	219 (≈ 69.7 µg/mL)	4.7 (≈ 1.5 µg/mL)	3.48	–
O=C(c1cc2ccccc2o1)N1CCN(Cc2ccc3c(c2)OCO3)CC1	–	5.83	171 (≈ 62.3 µg/mL)	2.7 (≈ 0.984 µg/mL)	5.63	–
Nc1nc(N)c2c(Sc3ccc4ccccc4c3)cccc2n1	–	4.72	32 (≈ 10.2 µg/mL)	8.71 (≈ 2.77 µg/mL)	4.41	–
COc1cc(CN2CCC3(C=Cc4ccccc43)CC2)cc2c1OCO2	–	8.25	121 (≈ 42.3 µg/mL)	9.5 (≈ 3.32 µg/mL)	7.03	–
c1ccc(-c2nnc(Sc3ccnc(N4CCN(c5ccncc5)CC4)n3)n2CCCN2CCOCC2)nc1	–	3.22	154 (≈ 83.9 µg/mL)	6.38 (≈ 3.48 µg/mL)	2.08	–
CCOC(=O)CC[C@H](NC(=O)c1ccc(S(=O)(=O)Nc2ccc3nc(N)[nH]c(=O)c3c2)cc1)C(=O)OCC	–	2.45	300 (≈ 164 µg/mL)	1.5 (≈ 0.818 µg/mL)	2.46	–
Cl.Cl.O=C(Nc1ccc(NC2=NCCN2)cc1)c1ccc(C(=O)Nc2ccc(NC3=NCCN3)cc2)cc1	–	0.918	26	1.6	0.12	–
COc1ccc(-c2nsc(SCC(=O)N3CCCC3)n2)cc1	–	5.27	10 (≈ 3.35 µg/mL)	1.6 (≈ 0.538 µg/mL)	4.97	–
CC(C)(C)c1ccc(-c2nnc(SCC(=O)OC3CCCCC3)o2)cc1	9.17	–	1 (≈ 0.375 µg/mL)	1.74 (≈ 0.651 µg/mL)	–	9.65
CCCCc1ccc(C(=O)Nc2nccc3ccccc23)nc1	–	6.94	98 (≈ 29.9 µg/mL)	9.23 (≈ 2.82 µg/mL)	6.65	–
Nc1cc(OCc2ccccc2)ccc1Nc1ccccc1	–	6.94	1 (≈ 0.29 µg/mL)	9.44 (≈ 2.74 µg/mL)	6.65	–
CN(C)S(=O)(=O)c1ccc(C(=O)Nc2nnc(-c3ccc(Cl)s3)o2)cc1	–	4.69	177 (≈ 73.1 µg/mL)	5.82 (≈ 2.4 µg/mL)	2.83	–
O=C(C=Cc1cccs1)N1CCN(Cc2ccc3c(c2)OCO3)CC1	–	5.23	314 (≈ 112 µg/mL)	0.3 (≈ 0.107 µg/mL)	4.97	–
O=C(CCC1CCCCC1)Nc1cccc(-c2nnc(-c3ccco3)o2)c1	–	7.18	1 (≈ 0.365 µg/mL)	6.1 (≈ 2.23 µg/mL)	6.84	–
Cc1nc2ccccn2c1C(=O)NCc1ccccc1	–	3.2	403 (≈ 107 µg/mL)	2 (≈ 0.531 µg/mL)	3.2	–
COc1cc2ccccc2cc1C(=O)NCc1cccc(-c2ccccc2OC)c1	–	7.58	84 (≈ 33.4 µg/mL)	2.2 (≈ 0.874 µg/mL)	7.21	–
CCC(Sc1nc2ccccc2o1)C(=O)Nc1nccs1 (stereo unspecified)	–	5.78	105 (≈ 33.5 µg/mL)	2.79 (≈ 0.89 µg/mL)	5.44	–
CC(C)OC(=O)COc1ccc(-c2cnc(N(C)CCc3ccncc3)nc2)cc1	–	5.93	182 (≈ 74 µg/mL)	6.76 (≈ 2.75 µg/mL)	5.63	–

SMILES	logD7.4 [1]	logP (physchem [2])	solubility kinetic (physchem [3]) [µM]	MIC90 [4] [µM]	logD (physchem [5])	logP [6]
C[C@@H](NCCc1nc(-c2cn(C)c3ccccc23)no1)C1CCCCC1.Cl	–	8.75	202	1.15	6.56	–
COc1cc(Cc2cnc(N)nc2N)c2cnccc2c1N(C)C	–	2.61	304 (≈ 98.6 µg/mL)	2.99 (≈ 0.968 µg/mL)	2.55	–
CCCc1ccc(S(=O)(=O)Nc2ccc(CN3CCN(CC4CC4)CC3)cc2)cc1.O=C(O)C(F)(F)F.O=C(O)C(F)(F)F	–	5.54	318	7.76	4.69	–
c1ccc(Cc2nnc(Sc3ccnc(N4CCN(c5ccncc5)CC4)n3)n2CCN2CCOCC2)cc1	–	3.12	186 (≈ 101 µg/mL)	7.85 (≈ 4.27 µg/mL)	2.18	–
CC1=Nc2ccccc2CN1CC(O)c1cc(Br)cs1 (stereo unspecified)	–	4.12	563 (≈ 198 µg/mL)	7.85 (≈ 2.76 µg/mL)	2.46	–
O=C(COc1ccccc1)N1CCN(c2cnc3ccccc3n2)CC1	–	4.72	173 (≈ 60.3 µg/mL)	3.09 (≈ 1.08 µg/mL)	4.69	–
Cc1cc(OCC(=O)Nc2ccccc2)c2cc(Br)ccc2n1	–	5.44	16 (≈ 5.94 µg/mL)	3.3 (≈ 1.23 µg/mL)	5.25	–
FC(F)(F)c1cc(SCc2ccccc2)nc(-c2ccccn2)n1	–	7.54	1 (≈ 0.347 µg/mL)	3.3 (≈ 1.15 µg/mL)	7.12	–
COc1ccccc1OCCCCn1c(C2CC2)nc2ccccc21	–	5.83	167 (≈ 56.2 µg/mL)	3.4 (≈ 1.14 µg/mL)	5.63	–
O=C(C=Cc1ccco1)N1CCN(Cc2ccc3c(c2)OCO3)CC1	–	4.72	186 (≈ 63.3 µg/mL)	4.6 (≈ 1.57 µg/mL)	4.51	–
CCc1ccc(S(=O)(=O)Nc2cc(CN3CCN(CCC(C)C)CC3)ccc2C)cc1.O=C(O)C(F)(F)F.O=C(O)C(F)(F)F	–	7.74	313	4.68	6.28	–
Cc1ccc2nc(C)c(-c3ccn(Cc4ccccc4)n3)n2c1	–	5.54	120 (≈ 36.3 µg/mL)	5 (≈ 1.51 µg/mL)	5.16	–
Cc1nn(Cc2ccccc2)c(Cl)c1C(=O)NC1CCCCCC1	–	7.04	28 (≈ 9.68 µg/mL)	5.2 (≈ 1.8 µg/mL)	6.75	–
O=C(/C=C/c1ccccc1)N1CCN(Cc2cccc(OCc3ccccc3)c2)CC1	–	7.54	61 (≈ 25.2 µg/mL)	8.22 (≈ 3.39 µg/mL)	7.21	–
O=C(Nc1ccccc1-c1nc(C2CCC2)cs1)OCC1CCNCC1.O=C(O)C(F)(F)F	–	8.15	115	8.71	4.41	–
CCc1nc2ccccc2n1CC(O)COc1cc(C)ccc1Cl (stereo unspecified)	–	5.63	1 (≈ 0.345 µg/mL)	8.81 (≈ 3.04 µg/mL)	5.35	–
CC(=O)NCCn1c(Sc2ccnc(N3CCN(c4ccncc4)CC3)n2)nnc1-c1ccccc1	–	1.82	135 (≈ 67.7 µg/mL)	8.91 (≈ 4.47 µg/mL)	1.06	–
Cc1nc2ccccn2c1C(=O)NCc1cccs1	–	2.93	365 (≈ 99 µg/mL)	9.02 (≈ 2.45 µg/mL)	2.92	–
c1ccc(-c2nc(NC3CCCCC3)cc(C3CC3)n2)nc1	–	6.74	302 (≈ 88.9 µg/mL)	7.08 (≈ 2.08 µg/mL)	6.09	–
c1ccc(-c2csc(Nc3nc4cc5c(cc4s3)OCO5)n2)nc1	–	5.06	1 (≈ 0.354 µg/mL)	2.7 (≈ 0.957 µg/mL)	5.07	–
COc1ccc2sc(Nc3nc(-c4ccccn4)cs3)nc2c1	–	5.34	22 (≈ 7.49 µg/mL)	8.2 (≈ 2.79 µg/mL)	5.35	–
Fc1ccc2nc(Nc3nc(-c4ccccn4)cs3)sc2c1	–	5.54	28.5 (≈ 9.36 µg/mL)	2.3 (≈ 0.755 µg/mL)	5.53	–
